Laboratory results: patent US7923204B2, “Forward mutation assay based on 5-fluorouracil resistance” (priority 2003, dated 2011)
Counter-ions that a name gives are not always drawn. Like-named read-outs stand apart in the source and are kept apart here. Marks after values point to notes of the source that are not given here.

Legend:
FU100 [1] = conditions: for response in the 5-FU Assay (in words): text and figure legend (FIG. 6), with or without S9
Protocol: Briefly, in order to practice the disclosed mutation assay one-ml aliquots of exponentially growing bacteria are exposed to the test agent for two hours in the presence and absence of a metabolic activation system, such as a mammalian (i.e., rat, hamster or human) liver homogenate (S9-fraction or liver microsomal enzymes). The aliquots are then diluted, allowed to grow for 3 hours, and assessed for treatment-related toxicity/inhibition by optical density. The cultures are subsequently diluted a second time and grown overnight to permit full recovery from toxicity and to allow expression of the FU^R phenotype. Samples of the cultures are then plated in 384-well microtiter dishes in the presence of 2 μg/ml 5-FU and the pH-sensitive indicator bromcresol purple. Three days later positive wells containing FU^R colonies are detected by their yellow color and enumerated. Treated cultures are then compared to control plates to determine genotoxic activity.
For each mutation experiment, two frozen 1-ml aliquots of FU100 were quickly thawed in a 37° C. water bath, pelleted by centrifugation, washed to remove the DMSO, and suspended in 35 mL of MinE medium. The culture was shaken for approximately 1 hour at 37° C. until the optical density at 600 nm (OD600) reached the target density of 0.3. A 16-ml aliquot of culture was added to each of two 50-ml tubes containing 3.6 ml of a NADPH-generating system (5.6 mM glucose-6-phosphate, 4.5 mM NADP+, 5 mM sucrose, 110 mM Na2HPO4, 37 mM KCl, and 9 mM MgCl2) and either 0.4 ml rat liver S-9 or an equal volume of sodium phosphate buffer. Aliquots of these mixtures were distributed into three 12-well cluster dishes (one for exposure with S-9, one for exposure without S-9, one for controls with and without S-9), and exposed to test compounds as 1-ml aliquots for 2 hour as outlined in FIG. 1.
Following treatment, the 1-ml aliquots were transferred into 9 ml of warm MinE medium in a 50 ml tube and incubated at 37° C. on a rotary wheel for 3 hours. Next, 20 ml of medium was added to each culture tube and 0.25 ml aliquots were transferred to a 96-well plate for OD600 measurements to assess toxicity (OD Day 1). […] Bulk cultures were then incubated overnight in the dark at 30° C. to permit recovery from toxicity and to allow time for the test cells to express the FU^R phenotype.
The next day, OD600 was again assessed to adjust cell number plated on 5-FU plates (OD Day 2; 100 μl of the culture diluted with 150 μl MinE medium for OD600 measurements). For plating, a 35 μl aliquot of each culture was added to 31.4 mL of MinE medium with 2 μg/ml of 5-FU and 10 μg/ml of bromcresol purple. The mixture was then dispersed into a 384-well plate (75 μl/well) and placed at 37° C. for 3 days in a humidified incubator.
The data obtained for both survival (OD day 1), relative number of cells plated (OD day 2), and number of positive wells were imported into an Excel template.
Table 8 summarizes the criteria for positive result in 5-FU assay using the FU100 tester strain described and claimed herein. […] A positive compound was defined when two or more doses met the aforementioned criteria.

Salmonella = conditions: cited from earlier work
chromosome aberrations = conditions: cited from earlier work
[2] = test system: sister chromatid exchange; conditions: cited from earlier work
FU100 [3] = test system: FU100
[4] = in the presence of S9 activation (+), FU100, 2 h exposure
[5] = in the presence of S9 activation (+), lowest dose tested giving a positive response
[6] = without S9 activation (−), FU100, 2 h exposure
[7] = without S9 activation (−), lowest dose tested giving a positive response
[8] = in the presence of S9 activation (+), approximate, first dose with greater than 50% survival by optical density on Day 1
[9] = without S9 activation (−), approximate, first dose with greater than 50% survival by optical density on Day 1
[10] = NTP Results Report 12 Aug. 2002 or cited reference (footnotes f, g, i, j)
[11] = NTP Results Report 12 Aug. 2002

| Compound | Results (5-FU assay) (FU100 [1]; [4]) | Lowest Positive Dose (FU100 [1]; [5]) | Results (5-FU assay) (FU100 [1]; [6]) | Lowest Positive Dose (FU100 [1]; [7]) | LD50 (FU100 [3]; [8]) | LD50 (FU100 [3]; [9]) | NTP Results: SA = Salmonella (Salmonella; [10]) | NTP Results: SC = sister chromatid exchange [2, 11] | further results |
| --- | --- | --- | --- | --- | --- | --- | --- | --- | --- |
| CC(O)CCl (stereo not shown) [1-Chloro-2-propanol] |  |  |  |  |  |  |  |  | Lowest Positive Dose (FU100 [1]): 2800 µg/mL; Results (5-FU assay) (FU100 [1]): Pos^w; Results (5-FU assay) (FU100 [1]; s9): Neg; NTP Results: SA = Salmonella (Salmonella): (SA+, CA+, SC+); NTP Results: CA = chromosome aberrations (chromosome aberrations): (SA+, CA+, SC+); NTP Results: SC = sister chromatid exchange [2]: (SA+, CA+, SC+) |
| Nc1ccc2cc3ccccc3cc2c1 [2-Aminoanthracene] | Pos | 0.2 µg/mL | Pos | 0.6 µg/mL | >2 µg/mL | >10 µg/mL | + | + |  |
| O=[N+]([O-])c1ccc2c(c1)Cc1ccccc1-2 [2-Nitrofluorene] | Pos | 0.6 µg/mL | Pos | 0.02 µg/mL | >2 µg/mL | >1 µg/mL |  |  |  |
| O=[N+]([O-])c1cc[n+]([O-])c2ccccc12 [4-Nitroquinoline N-oxide] |  |  |  |  | >0.5 µg/mL | >0.5 µg/mL |  |  |  |
| Cl.Nc1c2ccccc2nc2ccccc12.O [9-Aminoacridine•HCl•H2O] | Pos | 16 µg/mL | Pos | 16 µg/mL | >9 µg/mL | >9 µg/mL | (SA+, CA+, SC+) | (SA+, CA+, SC+) | response in the 5-FU Assay (in words) (FU100 [1]): positive compounds in toxic concentrations; NTP Results: CA = chromosome aberrations (chromosome aberrations; [11]): (SA+, CA+, SC+) |
| Cc1ccc2cc3c(ccc4ccccc43)c3c2c1CC3 [20-Methylcholanthrene] | Pos | 0.2 µg/mL | Pos | 5 µg/mL | >50 µg/mL | >50 µg/mL | + | + | NTP Results: CA = chromosome aberrations (chromosome aberrations; [11]): − |
| O=Cc1ccccc1 [Benzaldehyde] | Neg |  | Neg |  | >150 µg/mL | >150 µg/mL |  |  |  |
| c1ccc2c(c1)cc1ccc3cccc4ccc2c1c34 [Benzo[a]pyrene] |  |  |  |  | >20 µg/mL | >20 µg/mL |  |  |  |
| OCc1ccccc1 [Benzyl Alcohol] | Neg |  | Neg |  | >500 µg/mL | >900 µg/mL | − | +^w | NTP Results: CA = chromosome aberrations (chromosome aberrations; [11]): + |
| O=c1ccc2ccccc2o1 [Coumarin] | Pos | 50 µg/mL | Neg |  | >150 µg/mL | >900 µg/mL |  |  |  |
| CC(C)(OOC(C)(C)c1ccccc1)c1ccccc1 [Dicumyl peroxide] | Neg |  | Neg |  | >5000 µg/mL | >5000 µg/mL | (SA−) |  |  |
| C[S+](C)[O-] [Dimethyl Sulfoxide] | Neg |  | Neg |  | >5000 µg/mL | >5000 µg/mL | (SA−, CA−, SC−) | (SA−, CA−, SC−) | NTP Results: CA = chromosome aberrations (chromosome aberrations; [11]): (SA−, CA−, SC−) |
| COc1ccc2nc3cc(Cl)ccc3c(NCCCNCCCl)c2c1 [ICR-191] | Pos | 3.2 µg/mL | Pos | 0.2 µg/mL | >10 µg/mL | >3 µg/mL | (SA+) |  | response in the 5-FU Assay (in words) (FU100 [1]): positive compounds in non-toxic concentrations |
| C[C@H](CCC(=O)O)[C@H]1CC[C@H]2[C@@H]3CC[C@@H]4C[C@H](O)CC[C@]4(C)[C@H]3CC[C@]12C [Lithocholic Acid] | Neg |  | Neg |  | >2000 µg/mL | >2000 µg/mL |  |  |  |
| COS(C)(=O)=O [Methyl Methanesulfonate] | Pos | 10 µg/mL | Pos | 0.6 µg/mL | >100 µg/mL | >100 µg/mL | (SA+) |  | plating efficiency of FU^R mutants in treated culture at the end of day 1 (FU100 [1]; before overnight grow back was introduced): significantly suppressed; response in the 5-FU Assay (in words) (FU100 [1]): positive compounds in non-toxic concentrations |
| CN(N=O)C(N)=O [N-Nitroso-N-methylurea] | Pos | 5.0 µg/mL | Pos | 5.0 µg/mL | >90 µg/mL | >90 µg/mL | (SA+) |  |  |
| CN(C)N=O [N-Nitrosodimethylamine] | Pos | 360 µg/mL | Neg |  | >2000 µg/mL | >2000 µg/mL | (SA+, CA+, SC+) | (SA+, CA+, SC+) | NTP Results: CA = chromosome aberrations (chromosome aberrations; [11]): (SA+, CA+, SC+) |
| CCC1(c2ccccc2)C(=O)NC(=O)NC1=O [Phenobarbital] | Pos^w | 1500 µg/mL | Pos^w | 2800 µg/mL | >500 µg/mL | >500 µg/mL |  |  |  |
| Nc1ccc2cc3ccc(N)cc3nc2c1 [Proflavine HCl] | Pos | 0.1 µg/mL | Pos^w | 16 µg/mL | >10 µg/mL | >10 µg/mL | (SA+) |  |  |
| O=C1NS(=O)(=O)c2ccccc21 [Saccharin] |  |  |  |  |  |  |  |  | Results (5-FU assay) (FU100 [1]): Neg; LD50 (FU100 [3]; Salmonella typhimurium): >5000 µg/mL; NTP Results: SA = Salmonella (Salmonella): (SA−) |
| CCCCCCCCCCCCOS(=O)(=O)[O-].[Na+] [Sodium Dodecyl Sulfate] | Neg |  | Neg |  | >35 µg/mL | >20 µg/mL |  |  |  |
| CC/C(=C(\c1ccccc1)c1ccc(OCCN(C)C)cc1)c1ccccc1 [Tamoxifen] |  |  |  |  | >15 µg/mL | >3 µg/mL |  |  | Results (5-FU assay) (FU100 [1]): Neg |
| CN(C)[C@@H]1C(O)=C(C(N)=O)C(=O)[C@@]2(O)C(O)=C3C(=O)c4c(O)cccc4[C@@](C)(O)[C@H]3C[C@@H]12 [Tetracycline HCl] |  |  |  |  | >0.1 µg/mL | >0.1 µg/mL | − | − | Results (5-FU assay) (FU100 [1]): Neg; NTP Results: CA = chromosome aberrations (chromosome aberrations; [11]): − |
| Cc1cccc(Nc2cc(Cl)nc(SCC(=O)O)n2)c1C [Wyeth 14,643] | Neg |  | Neg |  | >900 µg/mL | >900 µg/mL | (SA−) |  |  |
| O=[N+]([O-])c1ccc(O)cc1 [p-Nitrophenol] | Neg |  | Neg |  | >50 µg/mL | >50 µg/mL | − | − | NTP Results: CA = chromosome aberrations (chromosome aberrations; [11]): + |
